Laboratory results taken from ChEMBL document CHEMBL4138123, “Design, synthesis and biological evaluation of novel pyrazolochalcones as potential modulators of PI3K/Akt/mTOR pathway and inducers of apoptosis in breast cancer cells” (Eur J Med Chem, 2017).

Tests used:
Assay type in all cases: functional
[1] = tested on: LOX IMVI; test: Cytotoxicity against human LOXIMVI cells assessed as cell growth at 100 uM after 48 hrs by sulforhodamine B assay relative to control; settings: read-out: Activity
[2] = tested on: SK-MEL-2; test: Cytotoxicity against human SK-MEL-2 cells assessed as cell growth at 100 uM after 48 hrs by sulforhodamine B assay relative to control; settings: SK-MEL-2, 48 h, read-out: Activity
[3] = tested on: SF-295; test: Cytotoxicity against human SF295 cells assessed as cell growth at 0.01 uM after 48 hrs by sulforhodamine B assay relative to control; settings: SF-295, 48 h, read-out: Activity
[4] = tested on: SF-295; test: Cytotoxicity against human SF295 cells assessed as cell growth at 100 uM after 48 hrs by sulforhodamine B assay relative to control; settings: SF-295, 48 h, read-out: Activity
[5] = tested on: SNB-75; test: Cytotoxicity against human SNB75 cells assessed as cell growth at 0.1 uM after 48 hrs by sulforhodamine B assay relative to control; settings: SNB-75, 48 h, read-out: Activity
[6] = tested on: HOP-92; test: Cytotoxicity against human HOP92 cells assessed as cell growth at 0.01 uM after 48 hrs by sulforhodamine B assay relative to control; settings: HOP-92, 48 h, read-out: Activity
[7] = tested on: SF-295; test: Cytotoxicity against human SF295 cells assessed as cell growth at 1 uM after 48 hrs by sulforhodamine B assay relative to control; settings: SF-295, 48 h, read-out: Activity
[8] = tested on: LOX IMVI; test: Cytotoxicity against human LOXIMVI cells assessed as cell growth at 1 uM after 48 hrs by sulforhodamine B assay relative to control; settings: read-out: Activity
[9] = tested on: SF-295; test: Cytotoxicity against human SF295 cells assessed as growth inhibition after 48 hrs by sulforhodamine B assay; settings: SF-295, 48 h
[10] = tested on: SF-295; test: Cytotoxicity against human SF295 cells assessed as cell growth at 10 uM after 48 hrs by sulforhodamine B assay relative to control; settings: SF-295, 48 h, read-out: Activity
[11] = tested on: SK-MEL-2; test: Cytotoxicity against human SK-MEL-2 cells assessed as cell growth at 1 uM after 48 hrs by sulforhodamine B assay relative to control; settings: SK-MEL-2, 48 h, read-out: Activity
[12] = tested on: SNB-75; test: Cytotoxicity against human SNB75 cells assessed as growth inhibition after 48 hrs by sulforhodamine B assay; settings: SNB-75, 48 h
[13] = tested on: SNB-75; test: Cytotoxicity against human SNB75 cells assessed as cell growth at 10 uM after 48 hrs by sulforhodamine B assay relative to control; settings: SNB-75, 48 h, read-out: Activity
[14] = tested on: SK-MEL-2; test: Cytotoxicity against human SK-MEL-2 cells assessed as cell growth at 0.1 uM after 48 hrs by sulforhodamine B assay relative to control; settings: SK-MEL-2, 48 h, read-out: Activity
[15] = tested on: HOP-92; test: Cytotoxicity against human HOP92 cells assessed as cell growth at 100 uM after 48 hrs by sulforhodamine B assay relative to control; settings: HOP-92, 48 h, read-out: Activity
[16] = tested on: HOP-92; test: Cytotoxicity against human HOP92 cells assessed as cell growth at 0.1 uM after 48 hrs by sulforhodamine B assay relative to control; settings: HOP-92, 48 h, read-out: Activity
[17] = tested on: LOX IMVI; test: Cytotoxicity against human LOXIMVI cells assessed as cell growth at 0.01 uM after 48 hrs by sulforhodamine B assay relative to control; settings: read-out: Activity
[18] = tested on: HOP-92; test: Cytotoxicity against human HOP92 cells assessed as cell growth at 1 uM after 48 hrs by sulforhodamine B assay relative to control; settings: HOP-92, 48 h, read-out: Activity
[19] = tested on: HOP-92; test: Cytotoxicity against human HOP92 cells assessed as cell growth at 10 uM after 48 hrs by sulforhodamine B assay relative to control; settings: HOP-92, 48 h, read-out: Activity
[20] = tested on: SNB-75; test: Cytotoxicity against human SNB75 cells assessed as cell growth at 100 uM after 48 hrs by sulforhodamine B assay relative to control; settings: SNB-75, 48 h, read-out: Activity
[21] = tested on: HOP-92; test: Cytotoxicity against human HOP92 cells assessed as growth inhibition after 48 hrs by sulforhodamine B assay; settings: HOP-92, 48 h; for CC50: read-out: LC50 (the source's name)
[22] = tested on: LOX IMVI; test: Cytotoxicity against human LOXIMVI cells assessed as cell growth at 0.1 uM after 48 hrs by sulforhodamine B assay relative to control; settings: read-out: Activity
[23] = tested on: SNB-75; test: Cytotoxicity against human SNB75 cells assessed as cell growth at 0.01 uM after 48 hrs by sulforhodamine B assay relative to control; settings: SNB-75, 48 h, read-out: Activity
[24] = tested on: SK-MEL-2; test: Cytotoxicity against human SK-MEL-2 cells assessed as cell growth at 0.01 uM after 48 hrs by sulforhodamine B assay relative to control; settings: SK-MEL-2, 48 h, read-out: Activity
[25] = tested on: SK-MEL-2; test: Cytotoxicity against human SK-MEL-2 cells assessed as cell growth at 10 uM after 48 hrs by sulforhodamine B assay relative to control; settings: SK-MEL-2, 48 h, read-out: Activity
[26] = tested on: LOX IMVI; test: Cytotoxicity against human LOXIMVI cells assessed as cell growth at 10 uM after 48 hrs by sulforhodamine B assay relative to control; settings: read-out: Activity
[27] = tested on: SF-295; test: Cytotoxicity against human SF295 cells assessed as cell growth at 0.1 uM after 48 hrs by sulforhodamine B assay relative to control; settings: SF-295, 48 h, read-out: Activity
[28] = tested on: SNB-75; test: Cytotoxicity against human SNB75 cells assessed as cell growth at 1 uM after 48 hrs by sulforhodamine B assay relative to control; settings: SNB-75, 48 h, read-out: Activity
[29] = tested on: CAKI-1; test: Cytotoxicity against human Caki1 cells assessed as cell growth at 10 uM after 48 hrs by sulforhodamine B assay relative to control; settings: CAKI-1, 48 h, read-out: Activity
[30] = tested on: CAKI-1; test: Cytotoxicity against human Caki1 cells assessed as cell growth at 1 uM after 48 hrs by sulforhodamine B assay relative to control; settings: CAKI-1, 48 h, read-out: Activity
[31] = tested on: CAKI-1; test: Cytotoxicity against human Caki1 cells assessed as cell growth at 0.01 uM after 48 hrs by sulforhodamine B assay relative to control; settings: CAKI-1, 48 h, read-out: Activity
[32] = tested on: CAKI-1; test: Cytotoxicity against human Caki1 cells assessed as growth inhibition after 48 hrs by sulforhodamine B assay; settings: CAKI-1, 48 h
[33] = tested on: CAKI-1; test: Cytotoxicity against human Caki1 cells assessed as cell growth at 100 uM after 48 hrs by sulforhodamine B assay relative to control; settings: CAKI-1, 48 h, read-out: Activity

Row | SMILES | growth at 100 µM [1] [%] | growth at 100 µM [2] [%] | growth at 0.01 µM [6] [%] | growth at 1 µM [8] [%] | growth at 1 µM [11] [%] | growth at 0.1 µM [14] [%] | growth at 100 µM [15] [%] | growth at 0.1 µM [16] [%] | growth at 0.01 µM [17] [%] | growth at 1 µM [18] [%] | growth at 10 µM [19] [%] | TGI [21] [µM] | CC50 [21] [µM] | growth at 0.1 µM [22] [%] | growth at 0.01 µM [24] [%] | growth at 10 µM [25] [%] | growth at 10 µM [26] [%] | growth at 10 µM [29] [%] | growth at 1 µM [30] [%] | growth at 0.01 µM [31] [%] | further results
1 | COc1ccc(-c2cc(/C=C/C(=O)c3cc(OC)c(OC)c(OC)c3)[nH]n2)cc1OC | -69 | -92 | 103 | 78 | 97 | 95 | -84 | 74 | 96 | 70 | -25 | 5.48 | 26.6 | 94 | 100 | -12 | -91 | – | – | – | growth at 0.01 µM [3]: 97%; growth at 100 µM [4]: -91%; growth at 0.1 µM [5]: 77%; growth at 1 µM [7]: 77%; GI50 [9]: 1.67 µM; LC50 [9]: 12.5 µM; TGI [9]: 4.26 µM; growth at 10 µM [10]: -46%; GI50 [12]: 1.31 µM; LC50 (concentration killing 50% of cells) [12]: 12.7 µM; TGI [12]: 3.77 µM; growth at 10 µM [13]: -46%; growth at 100 µM [20]: -82%; GI50 [21]: 1.61 µM; growth at 0.01 µM [23]: 88%; growth at 0.1 µM [27]: 87%; growth at 1 µM [28]: 63%
2 | COc1cc(-c2cc(/C=C/C(=O)c3ccc4c(c3)OCO4)[nH]n2)cc(OC)c1OC | -54 | -60 | – | 91 | 101 | 93 | – | – | 93 | – | – | – | – | 93 | 90 | 51 | -67 | 35 | 92 | 96 | LC50 [32]: > 100 µM; TGI [32]: > 100 µM; growth at 100 µM [33]: 27%
3 | COc1cc(-c2cc(/C=C/C(=O)c3ccc(Cl)c(Cl)c3)[nH]n2)cc(OC)c1OC | -58 | -60 | 89 | 88 | 99 | 88 | -56 | 90 | 96 | 89 | -8 | 8.25 | 75.9 | 92 | 94 | 68 | 16 | 62 | 87 | 91 | LC50 [32]: > 100 µM; TGI [32]: > 100 µM; growth at 100 µM [33]: 11%
4 | COc1cc(-c2cc(/C=C/C(=O)c3ccc(F)c(F)c3)[nH]n2)cc(OC)c1OC | -86 | -64 | – | 92 | 94 | 98 | – | – | 93 | – | – | – | – | 94 | 93 | -28 | 8 | 12 | 84 | 95 | LC50 [32]: > 100 µM; TGI [32]: > 100 µM; growth at 100 µM [33]: 3%
5 | COc1ccc(-c2cc(/C=C/C(=O)c3ccc(N)cc3)[nH]n2)cc1OC | -81 | -86 | 86 | 96 | 102 | 109 | -81 | 87 | 100 | 87 | 77 | 30.9 | 63.9 | 102 | 103 | 46 | -66 | – | – | – | growth at 0.01 µM [3]: 83%; growth at 100 µM [4]: -91%; growth at 0.1 µM [5]: 92%; growth at 1 µM [7]: 87%; GI50 [9]: 3.58 µM; LC50 [9]: 42.9 µM; TGI [9]: 15.2 µM; growth at 10 µM [10]: 20%; GI50 [12]: 2.74 µM; LC50 (concentration killing 50% of cells) [12]: 39 µM; TGI [12]: 14.2 µM; growth at 10 µM [13]: 17%; growth at 100 µM [20]: -97%; GI50 [21]: 1.49 µM; growth at 0.01 µM [23]: 81%; growth at 0.1 µM [27]: 90%; growth at 1 µM [28]: 75%
